From patent publication US7632819B1, “Methods and compositions for inhibiting PKC delta cleavage for treatment and prevention of neurodegeneration and apoptosis” (Iowa State University Research Foundation, Inc., priority 2004, dated 2009) come the findings set out here.

In one series the test system is N27 cells. Particulars: for increase in DNA fragmentation compared to untreated cells: toxin alone. The method, then: […] Z is the abbreviation for N-benzyloxycarbonyl. Untreated cells were used as control samples. After the treatment, the cells were collected by trypsinization (Trypsin 0.25%, 1 mM EDTA), centrifuged at 200×g for 5 min, washed with PBS twice, then lysed. The lysate was used for DNA fragmentation assay.
DNA fragmentation assays were performed using a recently developed Cell Death Detection ELISA Plus Assay Kit. This is a fast, highly sensitive and reliable assay for the detection of early changes in apoptotic cell death. After treatments, 20 μl of cell lysate was processed according to the manufacturer's protocol. The assay solution consisted of a mixture of anti-histone biotin and anti-DNA-HRP directed against various histones and antibodies to both single stranded DNA and double stranded DNA, the major constituents of nucleosomes. After 2 hr incubation, unbound components were removed by washing with the incubation buffer supplied with the kit. Quantification of the nucleosomes retained by anti-DNA-HRP in the immunocomplex was determined spectrophotometrically with ABTS (2,2′-azino-di[3-ethoxybenzyl thiazoline sulfonate) as a HRP substrate (supplied with the kit). Measurements were made at 405 nm against an ABTS solution as a blank (reference wave length 490 nm).
(§1) Chemicals. Protease cocktail, ATP, protein-A-sepharose, protein-G-sepharose and anti-â-actin antibody were obtained from Sigma-Aldrich (St. Louis, Mo.); mouse tyrosine hydroxylase antibody was purchased from Chemicon (Temecula, Calif.); the rabbit polyclonal antibody for tyrosine hydroxylase was obtained from Calbiochem Bioscience, Inc. (King of Prussia, Pa.); rabbit PKCδ antibody was purchased from Santa Cruz Biotechnology, Inc. (Santa Cruz, Calif.); anti-rabbit and anti-mouse secondary antibodies and the ECL chemiluminescence kit were purchased from Amersham Pharmacia Biotech. (Piscataway, N.J.). Alexa 488 conjugated antirabbit/mouse, Cy3 conjugated anti-rabbit/mouse antibody and Hoechst 33342 were purchased from Molecular Probes, Inc. (Eugene, Oreg.). [ã-32P]ATP was purchased from Perkin Elmer Life Science Products (Boston, Mass.). The Bradford protein assay kit was purchased from Bio-Rad Laboratories (Hercules, Calif.). RPMI, fetal bovine serum, -glutamine, penicillin, and streptomycin were purchased from Invitrogen (Gaithersburg, Md.). Quantity One 4.2.0 software was purchased from Bio-Rad. Design and synthesis of z-DIPD-fmk (SEQ ID NO:5). To develop a cell permeable peptide inhibitor to specifically block PKCδ cleavage, we designed the tetrapeptide Asp-Ile-Pro-Asp (DIPD) (SEQ ID NO:5) corresponding to position 324-327 in rat PKCδ cDNA representing the caspase-3 cleavage site. Since this peptide is directed against the caspase-3 cleavage site of PKCδ, it should prevent the proteolytic cleavage and activation of PKCδ mediated by caspase-3. The custom synthesis of the tetrapeptide Z-Asp(OMe)-Ile-Pro-Asp(OMe)-FMK (SEQ ID NO:5) was performed at MP Biomedicals (Irvine, Calif.), a quality company that specializes in developing cell permeable peptide inhibitors directed against apoptosis cell signaling molecules. Briefly, the synthesis was performed with the reaction of Boc-D(OMe)-OH with MBFM (Magnesium benzyl fluoromalonate) to produce Beta-Keto fluoroester, followed by hydrogenation with Pd/c to produce Boc-D(OMe)FK, which was converted into Tfa salt using trifluoroacetic acid. Coupling of Tfa salt with Z-D(OMe)—I—P—OH in DMF with HOBT, HBTU DIEA and workup produced a crude product which was purified by column chromatography over silica gel. Elution with EtOAC:MeOH 95:5 gave pure fractions which were mixed and dried. Crystallization with EtOAC/Hexane, filtration and drying produced the pure product. Animals.

Series [1] is described as follows: MTT cytotoxicity assay, MPP+- and 6-OHDA-induced cytotoxicity. The settings on record: rat.
Text: as §1, with “Briefly, the synthesis was performed with the reaction of Boc-D(OMe)-OH with MBFM (Magnesium benzyl fluoromalonate) to produce Beta-Keto fluoroester, followed by hydrogenation with Pd/c to produce Boc-D(OMe)FK, which was converted into Tfa salt using trifluoroacetic acid. Coupling of Tfa salt with Z-D(OMe)—I—P—OH in DMF with HOBT, HBTU DIEA and workup produced a crude product which was purified by column chromatography over silica gel. Elution with EtOAC:MeOH 95:5 gave pure fractions which were mixed and dried. Crystallization with EtOAC/Hexane, filtration and drying produced the pure product. Animals.” left out
A general note: Tetrazolium dyes change colour on reduction, which living cells bring about.

The target of series [2] is T1, caspase-3 (Rattus norvegicus, UniProt P55213).
T1 construct: N27 cells were exposed to either MPP^+ or 6-OHDA in the absence or presence of z-DIPD-fmk; endogenous in cells; host or cells: N27 rat mesencephalic dopaminergic neuronal cells
T1 sequence (P55213 29-175 limits assumed): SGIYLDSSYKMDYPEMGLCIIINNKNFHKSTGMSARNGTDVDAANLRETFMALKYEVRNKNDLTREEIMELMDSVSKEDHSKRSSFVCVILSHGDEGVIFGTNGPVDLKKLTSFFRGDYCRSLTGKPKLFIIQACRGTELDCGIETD
T1 sequence (P55213 176-277 limits assumed): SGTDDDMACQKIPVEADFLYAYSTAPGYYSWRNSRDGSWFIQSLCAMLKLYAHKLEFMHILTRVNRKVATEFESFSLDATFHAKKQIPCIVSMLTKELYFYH
Put plainly: Caspase-3 activity assay with fluorogenic substrate Ac-DEVD-AFC in treated N27 cells. The series is classed as cell-based. Particulars: toxin alone.
Text: as §1, with “Animals. Time-pregnant C57/bL mice were housed under standard conditions: constant temperature (22±1° C.), humidity (relative, 30%) and a 12-h light/dark cycle with free access to food and water. The animals and protocol procedures were approved and supervised by the Committee on Animal Care (COAC) at Iowa State University. Cell culture. Rat mesencephalic dopaminergic neuronal (N27) cells were cultured as described earlier (Anantharam et al., 2002). Briefly, cells were grown in RPMI 1640 medium containing 10% fetal bovine serum, 2 mM L-glutamine, 50 units of penicillin, and 50 μg/ml streptomycin. Cells were maintained in a humidified atmosphere of 5% CO2 at 37° C. Primary mesencephalic neuronal cultures were prepared from the ventral mesencephalon of gestational 18-day-old mice embryos as described previously (Yang et al., 2004). Mesencephalic tissues were dissected and maintained in ice-cold Ca2+-free HBSS and then dissociated in HBSS solution containing trypsin-EDTA (0.25%) for 20 min at 37° C. […]” for “Animals.”

The subject of the next series is PKCδ. Put plainly: Immunoprecipitation kinase assay (histone H1 phosphorylation) in N27 cells. The series is classed as cell-based, rat. The settings on record: toxin alone.
Text: as §1, with “Animals. Time-pregnant C57/bL mice were housed under standard conditions: constant temperature (22±1° C.), humidity (relative, 30%) and a 12-h light/dark cycle with free access to food and water. The animals and protocol procedures were approved and supervised by the Committee on Animal Care (COAC) at Iowa State University. Cell culture. […]” for “Animals.”

In series [3] the test system is N27 mesencephalic neuronal cells. Put plainly: MTT cytotoxicity assay, MPP+- and 6-OHDA-induced cytotoxicity. The settings on record: N27 cells, 300 μM MPP+ 36 hr, toxin alone.
Text: as §1, with “Briefly, the synthesis was performed with the reaction of Boc-D(OMe)-OH with MBFM (Magnesium benzyl fluoromalonate) to produce Beta-Keto fluoroester, followed by hydrogenation with Pd/c to produce Boc-D(OMe)FK, which was converted into Tfa salt using trifluoroacetic acid. Coupling of Tfa salt with Z-D(OMe)—I—P—OH in DMF with HOBT, HBTU DIEA and workup produced a crude product which was purified by column chromatography over silica gel. Elution with EtOAC:MeOH 95:5 gave pure fractions which were mixed and dried. Crystallization with EtOAC/Hexane, filtration and drying produced the pure product. Animals.” left out

In series [4] the target is T2, caspase-3 (rat, UniProt P55213 29-277, limits assumed).
T2 sequence (looked up): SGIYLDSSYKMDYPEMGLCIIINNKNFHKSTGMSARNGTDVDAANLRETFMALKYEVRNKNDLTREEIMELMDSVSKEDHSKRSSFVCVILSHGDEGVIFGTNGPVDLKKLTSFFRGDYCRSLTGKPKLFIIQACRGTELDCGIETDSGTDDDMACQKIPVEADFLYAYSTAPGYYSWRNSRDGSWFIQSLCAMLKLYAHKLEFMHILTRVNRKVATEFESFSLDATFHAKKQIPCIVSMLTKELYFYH
Put plainly: cell-based or functional assay.

Where two headings read alike, the source gives them in different places. The star is where a group is joined. Cbz = O=C(OCc1ccccc1)*; CH2F = FC*

As to `COC(=O)CC[C@H](NC(=O)[C@H](CC(=O)OC)NC(=O)OCc1ccccc1)C(=O)N[C@H](C(=O)N[C@@H](CC(=O)OC)C(=O)CF)C(C)C` [z-DEVD-fmk, Asp-Glu-Val-Asp-FMK, reference compound], the “effect on 6-OHDA-induced DNA fragmentation / apoptotic cell death” value with N27 cells (100 μM 6-OHDA 24 hr, concentration not stated or dose-response 1-50 μM) is reported as “dose dependently blocked”. Further, the IC50 in the series on N27 cells (read-out: IC50, 6-OHDA-induced DNA fragmentation (apoptotic cell death), 100 μM 6-OHDA 24 hr, inhibitor 1-50 μM) turned out to be 18 µM.

As for `NCCc1cc(O)c(O)cc1O` [6-OHDA, 6-hydroxydopamine, reference compound], the “increase in DNA fragmentation compared to untreated cells” value in the series with N27 cells (100 μM 6-OHDA 24 hr) came out at 93%. Further, the cytotoxicity at 24 h, 100 μM in series [1] is above 60%. Further, the “increase in caspase-3 enzyme activity” value at caspase-3 [2] (100 μM 6-OHDA 24 hr) is on record as around 2.5 fold. Besides, the “increase in PKCδ enzymatic activity over the untreated cells” value with PKCδ (100 μM 6-OHDA 24 hr) is 235%.

Take `C[n+]1ccc(-c2ccccc2)cc1` [MPP^+, 1-methyl-4-phenylpyridinium, reference compound]: the “increase in DNA fragmentation compared to untreated cells” value with N27 cells (300 μM MPP+ 36 hr) was determined as 75%. Besides, the “loss of cell viability (MTT)” value in series [3] was “more than 40%”. Besides, at caspase-3 [2] (300 μM MPP+ 36 hr), the “increase in caspase-3 enzyme activity” value is around 2.5 fold. The “increase in PKCδ enzymatic activity over the untreated cells” value with PKCδ (300 μM MPP+ 36 hr) came out at 333%.

B1: z-DEVD-fmk (Asp-Glu-Val-Asp-FMK) (peptide)
peptide: Cbz-DEVD-CH2F
SMILES: CC(C)[C@H](NC(=O)[C@H](CCC(=O)O)NC(=O)[C@H](CC(=O)O)NC(=O)OCc1ccccc1)C(=O)N[C@@H](CC(=O)O)C(=O)CF
On to B1, for which, in the series with caspase-3 [4], the “IC50 for inhibition of 6-OHDA-induced DNA fragmentation (Cell Death Detection ELISA) in N27 cells” value worked out at 18 µM.

B2: Z-Asp(OMe)-Ile-Pro-Asp(OMe)-FMK (N-benzyloxycarbonyl-Asp(OMe)-Ile-Pro-Asp(OMe)-fluoromethyl ketone) (peptide)
peptide: Cbz-D(OMe)IPD(OMe)-CH2F
SMILES: CC[C@H](C)[C@H](NC(=O)[C@H](CC(=O)OC)NC(=O)OCc1ccccc1)C(=O)N1CCC[C@H]1C(=O)N[C@@H](CC(=O)OC)C(=O)CF
Turning to B2, the “IC50 for inhibition of 6-OHDA-induced DNA fragmentation (Cell Death Detection ELISA) in N27 cells” value in the series with caspase-3 [4] stood at 6 µM.

Usually IC50 stands for the midpoint of a concentration-inhibition curve.
